Key:
Experiment in all cases: KINOMEscan competition binding
RPS6KA5 KD2 (human) = RPS6KA5 KD2 (human) (UniProt O75582); details: compound 10.0 µM
DAPK1 (human) = DAPK1 (human) (UniProt P53355); details: for kinase still bound, per cent of control: compound 10.0 µM
MYLK (human) = MYLK (human) (UniProt Q15746); details: compound 10.0 µM
STK17B (human) = STK17B (human) (UniProt O94768); details: for kinase still bound, per cent of control: compound 10.0 µM
[1] = system: KIT (human), P10721 [V559D/T670I]; details: compound 10.0 µM
MKNK2 (human) = MKNK2 (human) (UniProt Q9HBH9); details: compound 10.0 µM
PIM1 (human) = PIM1 (human) (UniProt P11309); details: for kinase still bound, per cent of control: compound 10.0 µM
Chain of PIM1 (human) (P11309 whole entry, looked up): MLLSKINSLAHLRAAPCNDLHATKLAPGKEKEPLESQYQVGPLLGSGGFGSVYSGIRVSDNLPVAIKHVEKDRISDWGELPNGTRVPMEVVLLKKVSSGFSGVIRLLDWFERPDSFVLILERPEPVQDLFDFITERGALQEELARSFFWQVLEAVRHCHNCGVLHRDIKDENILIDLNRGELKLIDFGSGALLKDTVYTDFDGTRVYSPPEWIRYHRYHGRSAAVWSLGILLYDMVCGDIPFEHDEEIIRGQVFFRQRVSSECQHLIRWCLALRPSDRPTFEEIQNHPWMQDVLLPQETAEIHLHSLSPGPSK

PRKD1 (human) = PRKD1 (human) (UniProt Q15139); details: compound 10.0 µM
MAPK15 (human) = MAPK15 (human) (UniProt Q8TD08); details: for kinase still bound, per cent of control: compound 10.0 µM
Chain of MAPK15 (human) (Q8TD08 whole entry, looked up): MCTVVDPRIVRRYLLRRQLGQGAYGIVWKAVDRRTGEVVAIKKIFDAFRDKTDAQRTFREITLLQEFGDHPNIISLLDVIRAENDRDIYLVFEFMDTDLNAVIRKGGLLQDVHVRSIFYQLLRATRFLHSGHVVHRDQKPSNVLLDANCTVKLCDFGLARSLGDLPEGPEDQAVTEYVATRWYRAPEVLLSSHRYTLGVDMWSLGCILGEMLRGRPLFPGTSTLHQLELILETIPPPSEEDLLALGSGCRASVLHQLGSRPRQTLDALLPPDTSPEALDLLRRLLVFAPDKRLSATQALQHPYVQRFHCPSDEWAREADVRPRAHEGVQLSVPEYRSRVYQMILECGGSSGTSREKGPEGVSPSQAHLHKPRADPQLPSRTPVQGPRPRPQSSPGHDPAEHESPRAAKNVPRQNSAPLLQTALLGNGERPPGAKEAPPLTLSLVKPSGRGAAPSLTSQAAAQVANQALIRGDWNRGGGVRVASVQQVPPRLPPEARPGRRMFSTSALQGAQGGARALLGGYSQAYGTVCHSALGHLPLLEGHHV

RIOK2 (human) = RIOK2 (human) (UniProt Q9BVS4); details: compound 10.0 µM
RIOK1 (human) = RIOK1 (human) (UniProt Q9BRS2); details: compound 10.0 µM
NEK2 (human) = NEK2 (human) (UniProt P51955); details: compound 10.0 µM
CIT (human) = CIT (human) (UniProt O14578); details: compound 10.0 µM
CAMKK2 (human) = CAMKK2 (human) (UniProt Q96RR4); details: compound 10.0 µM
CLK2 (human) = CLK2 (human) (UniProt P49760); details: for kinase still bound, per cent of control: compound 10.0 µM
Chain of CLK2 (human) (P49760 whole entry, looked up): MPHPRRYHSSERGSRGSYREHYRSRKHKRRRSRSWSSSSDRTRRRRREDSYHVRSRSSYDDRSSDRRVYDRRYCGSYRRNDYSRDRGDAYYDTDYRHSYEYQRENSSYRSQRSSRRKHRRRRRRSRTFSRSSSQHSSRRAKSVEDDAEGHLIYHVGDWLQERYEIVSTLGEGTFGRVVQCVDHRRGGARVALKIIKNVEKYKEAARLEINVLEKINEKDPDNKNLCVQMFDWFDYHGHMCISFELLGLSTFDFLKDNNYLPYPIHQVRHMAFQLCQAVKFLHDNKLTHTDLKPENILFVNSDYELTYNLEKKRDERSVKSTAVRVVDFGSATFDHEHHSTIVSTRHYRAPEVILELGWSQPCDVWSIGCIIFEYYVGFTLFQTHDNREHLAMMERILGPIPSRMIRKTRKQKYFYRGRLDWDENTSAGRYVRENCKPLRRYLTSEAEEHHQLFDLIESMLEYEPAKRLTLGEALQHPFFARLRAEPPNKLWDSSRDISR

KIT (human) = KIT (human) (UniProt P10721); details: compound 10.0 µM
RIPK4 (human) = RIPK4 (human) (UniProt P57078); details: compound 10.0 µM
ACVR2A (human) = ACVR2A (human) (UniProt P27037); details: compound 10.0 µM
[2] = target: TYK2 JH2 pseudokinase (human) (UniProt P29597); details: compound 10.0 µM
[3] = system: EGFR (human), P00533 [G719S]; details: compound 10.0 µM
MAP3K7 (human) = MAP3K7 (human) (UniProt O43318); details: compound 10.0 µM
AURKC (human) = AURKC (human) (UniProt Q9UQB9); details: compound 10.0 µM
PIK3CG (human) = PIK3CG (human) (UniProt P48736); details: compound 10.0 µM
CDK7 (human) = CDK7 (human) (UniProt P50613); details: compound 10.0 µM
RPS6KA1 KD2 (human) = RPS6KA1 KD2 (human) (UniProt Q15418); details: compound 10.0 µM
[4] = system: KIT (human), P10721 [D816V]; details: compound 10.0 µM
CSNK1E (human) = CSNK1E (human) (UniProt P49674); details: compound 10.0 µM
FLT3 (human) = FLT3 (human) (UniProt P36888); details: compound 10.0 µM
MINK1 (human) = MINK1 (human) (UniProt Q8N4C8); details: compound 10.0 µM
MKNK1 (human) = MKNK1 (human) (UniProt Q9BUB5); details: compound 10.0 µM
Chain of MKNK1 (human) (Q9BUB5 whole entry, looked up): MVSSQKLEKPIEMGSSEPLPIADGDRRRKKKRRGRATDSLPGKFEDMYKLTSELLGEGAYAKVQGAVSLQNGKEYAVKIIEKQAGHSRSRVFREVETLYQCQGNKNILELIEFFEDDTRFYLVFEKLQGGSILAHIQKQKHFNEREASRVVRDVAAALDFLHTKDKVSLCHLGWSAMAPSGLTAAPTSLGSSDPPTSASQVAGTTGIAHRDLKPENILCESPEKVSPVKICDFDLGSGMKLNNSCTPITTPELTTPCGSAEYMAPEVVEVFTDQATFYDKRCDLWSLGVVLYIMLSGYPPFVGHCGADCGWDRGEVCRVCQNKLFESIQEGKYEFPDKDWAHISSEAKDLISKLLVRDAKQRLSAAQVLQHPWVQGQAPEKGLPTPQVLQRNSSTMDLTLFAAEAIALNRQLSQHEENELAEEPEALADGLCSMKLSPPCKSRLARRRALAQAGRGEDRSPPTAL

CLK3 (human) = CLK3 (human) (UniProt P49761); details: compound 10.0 µM
DCLK3 (human) = DCLK3 (human) (UniProt Q9C098); details: compound 10.0 µM
HIPK1 (human) = HIPK1 (human) (UniProt Q86Z02); details: compound 10.0 µM
RPS6KA4 KD2 (human) = RPS6KA4 KD2 (human) (UniProt O75676); details: compound 10.0 µM
ULK2 (human) = ULK2 (human) (UniProt Q8IYT8); details: for kinase still bound, per cent of control: compound 10.0 µM
Chain of ULK2 (human) (Q8IYT8 whole entry, looked up): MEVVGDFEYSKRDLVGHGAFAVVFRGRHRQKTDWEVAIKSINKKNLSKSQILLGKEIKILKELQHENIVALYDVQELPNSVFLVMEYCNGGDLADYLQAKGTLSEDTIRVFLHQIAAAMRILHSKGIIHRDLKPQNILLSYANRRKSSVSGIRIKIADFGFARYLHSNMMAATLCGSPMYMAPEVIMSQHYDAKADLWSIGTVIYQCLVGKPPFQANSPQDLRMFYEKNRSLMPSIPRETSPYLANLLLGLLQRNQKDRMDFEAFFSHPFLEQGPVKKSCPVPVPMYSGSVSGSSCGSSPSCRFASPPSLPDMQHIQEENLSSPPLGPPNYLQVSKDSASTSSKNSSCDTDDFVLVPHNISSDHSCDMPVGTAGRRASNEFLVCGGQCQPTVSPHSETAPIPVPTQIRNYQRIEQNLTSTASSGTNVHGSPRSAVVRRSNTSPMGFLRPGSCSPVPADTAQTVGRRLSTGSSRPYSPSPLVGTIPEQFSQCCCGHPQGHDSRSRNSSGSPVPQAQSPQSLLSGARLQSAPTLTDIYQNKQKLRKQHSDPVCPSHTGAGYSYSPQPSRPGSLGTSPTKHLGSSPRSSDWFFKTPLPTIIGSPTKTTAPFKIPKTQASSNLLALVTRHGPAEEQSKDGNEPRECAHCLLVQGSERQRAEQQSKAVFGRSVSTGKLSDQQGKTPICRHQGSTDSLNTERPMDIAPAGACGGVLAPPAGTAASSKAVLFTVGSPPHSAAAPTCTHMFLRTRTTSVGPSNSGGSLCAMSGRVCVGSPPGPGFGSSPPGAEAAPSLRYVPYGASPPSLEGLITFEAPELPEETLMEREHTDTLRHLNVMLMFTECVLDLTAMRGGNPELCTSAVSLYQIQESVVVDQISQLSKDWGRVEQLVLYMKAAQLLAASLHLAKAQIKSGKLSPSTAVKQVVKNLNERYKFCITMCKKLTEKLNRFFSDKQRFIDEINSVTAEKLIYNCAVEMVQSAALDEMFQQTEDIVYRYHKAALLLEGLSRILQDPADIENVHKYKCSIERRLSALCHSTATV

[5] = target: JAK1 JH2 pseudokinase (human) (UniProt P23458); details: compound 10.0 µM
CSNK2A1 (human) = CSNK2A1 (human) (UniProt P68400); details: for kinase still bound, per cent of control: compound 10.0 µM
Chain of CSNK2A1 (human) (P68400 whole entry, looked up): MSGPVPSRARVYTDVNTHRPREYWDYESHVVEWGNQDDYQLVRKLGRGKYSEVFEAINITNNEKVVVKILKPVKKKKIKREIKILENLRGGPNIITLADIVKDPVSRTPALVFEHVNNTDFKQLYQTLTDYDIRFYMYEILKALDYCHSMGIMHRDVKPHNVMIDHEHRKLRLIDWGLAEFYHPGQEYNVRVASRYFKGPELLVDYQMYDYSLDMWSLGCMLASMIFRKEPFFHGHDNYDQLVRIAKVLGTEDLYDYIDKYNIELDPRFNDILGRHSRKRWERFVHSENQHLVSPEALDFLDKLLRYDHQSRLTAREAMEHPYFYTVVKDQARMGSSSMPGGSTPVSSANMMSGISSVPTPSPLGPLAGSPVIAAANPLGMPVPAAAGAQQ

CAMKK1 (human) = CAMKK1 (human) (UniProt Q8N5S9); details: compound 10.0 µM
GAK (human) = GAK (human) (UniProt O14976); details: compound 10.0 µM
[6] = target: JAK3 JH1 catalytic (human) (UniProt P52333); details: compound 10.0 µM
MAP2K3 (human) = MAP2K3 (human) (UniProt P46734); details: compound 10.0 µM
[7] = system: FLT3 (human), P36888 [K663Q]; details: compound 10.0 µM

Chain of STK17B (human) (O94768 whole entry, looked up): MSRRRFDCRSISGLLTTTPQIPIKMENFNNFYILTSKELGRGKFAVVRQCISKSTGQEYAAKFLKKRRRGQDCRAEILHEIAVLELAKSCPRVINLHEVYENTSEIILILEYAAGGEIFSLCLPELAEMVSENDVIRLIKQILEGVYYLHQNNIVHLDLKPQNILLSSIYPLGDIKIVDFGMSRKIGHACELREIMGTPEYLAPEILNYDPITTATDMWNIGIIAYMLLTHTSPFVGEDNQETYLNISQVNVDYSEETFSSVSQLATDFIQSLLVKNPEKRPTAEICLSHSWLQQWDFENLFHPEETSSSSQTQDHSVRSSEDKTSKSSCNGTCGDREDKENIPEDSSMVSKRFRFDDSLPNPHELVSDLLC
Chain of DAPK1 (human) (P53355 whole entry, looked up): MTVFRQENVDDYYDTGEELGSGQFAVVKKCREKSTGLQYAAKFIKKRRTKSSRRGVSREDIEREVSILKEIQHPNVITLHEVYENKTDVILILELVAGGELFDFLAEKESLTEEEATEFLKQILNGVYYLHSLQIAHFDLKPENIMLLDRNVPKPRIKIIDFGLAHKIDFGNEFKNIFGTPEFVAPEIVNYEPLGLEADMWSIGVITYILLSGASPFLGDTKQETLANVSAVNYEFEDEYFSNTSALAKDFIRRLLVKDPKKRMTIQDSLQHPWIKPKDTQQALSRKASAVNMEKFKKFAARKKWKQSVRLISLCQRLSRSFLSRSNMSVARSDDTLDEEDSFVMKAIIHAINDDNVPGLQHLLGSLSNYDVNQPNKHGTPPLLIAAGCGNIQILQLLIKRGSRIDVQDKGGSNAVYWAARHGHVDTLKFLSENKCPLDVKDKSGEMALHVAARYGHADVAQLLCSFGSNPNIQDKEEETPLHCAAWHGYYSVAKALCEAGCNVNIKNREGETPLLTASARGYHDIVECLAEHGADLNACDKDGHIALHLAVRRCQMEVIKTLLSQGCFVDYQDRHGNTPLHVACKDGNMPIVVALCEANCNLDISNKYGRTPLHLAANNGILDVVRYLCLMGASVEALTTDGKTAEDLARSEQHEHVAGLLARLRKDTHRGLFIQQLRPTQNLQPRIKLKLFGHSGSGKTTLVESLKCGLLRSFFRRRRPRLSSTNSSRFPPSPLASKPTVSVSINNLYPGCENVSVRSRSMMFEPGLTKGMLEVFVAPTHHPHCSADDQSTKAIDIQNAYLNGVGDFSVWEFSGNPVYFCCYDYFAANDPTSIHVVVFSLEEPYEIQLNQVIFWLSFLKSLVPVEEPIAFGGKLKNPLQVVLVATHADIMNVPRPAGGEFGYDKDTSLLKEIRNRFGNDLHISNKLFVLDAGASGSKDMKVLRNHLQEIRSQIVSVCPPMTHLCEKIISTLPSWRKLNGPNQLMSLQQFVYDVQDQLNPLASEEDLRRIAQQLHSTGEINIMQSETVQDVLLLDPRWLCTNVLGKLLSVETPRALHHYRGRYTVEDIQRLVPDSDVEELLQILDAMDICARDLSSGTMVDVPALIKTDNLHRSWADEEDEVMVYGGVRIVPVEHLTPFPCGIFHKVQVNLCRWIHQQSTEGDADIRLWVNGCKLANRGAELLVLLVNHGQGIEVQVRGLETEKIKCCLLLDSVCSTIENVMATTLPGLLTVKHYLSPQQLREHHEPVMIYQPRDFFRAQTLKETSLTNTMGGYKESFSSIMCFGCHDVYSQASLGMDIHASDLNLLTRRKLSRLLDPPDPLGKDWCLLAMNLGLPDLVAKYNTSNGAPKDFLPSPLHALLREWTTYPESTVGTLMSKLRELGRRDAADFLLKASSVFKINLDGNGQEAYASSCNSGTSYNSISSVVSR

O=C1NC(=O)/C(=C/c2c[nH]c(=O)c(-c3ccc(N4CCNCC4)nc3)c2)S1
kinase still bound, per cent of control (RPS6KA5 KD2 (human)): 59% | Kd (DAPK1 (human)): 0.0095 µM | kinase still bound, per cent of control (DAPK1 (human)): 0.35% | kinase still bound, per cent of control (MYLK (human)): 42% | Kd (STK17B (human)): 0.13 µM | kinase still bound, per cent of control (STK17B (human)): 0.15% | kinase still bound, per cent of control [1]: 72% | kinase still bound, per cent of control (MKNK2 (human)): 93% | Kd (PIM1 (human)): 0.037 µM | kinase still bound, per cent of control (PIM1 (human)): 0.95% | kinase still bound, per cent of control (PRKD1 (human)): 8.2% | Kd (MAPK15 (human)): 0.39 µM | kinase still bound, per cent of control (MAPK15 (human)): 0.5% | kinase still bound, per cent of control (RIOK2 (human)): 66% | kinase still bound, per cent of control (RIOK1 (human)): 5% | kinase still bound, per cent of control (NEK2 (human)): 13% | kinase still bound, per cent of control (CIT (human)): 37% | kinase still bound, per cent of control (CAMKK2 (human)): 31% | Kd (CLK2 (human)): 0.15 µM | kinase still bound, per cent of control (CLK2 (human)): 0% | kinase still bound, per cent of control (KIT (human)): 82% | kinase still bound, per cent of control (RIPK4 (human)): 100% | kinase still bound, per cent of control (ACVR2A (human)): 76% | kinase still bound, per cent of control [2]: 72% | kinase still bound, per cent of control [3]: 58% | kinase still bound, per cent of control (MAP3K7 (human)): 91% | kinase still bound, per cent of control (AURKC (human)): 57% | kinase still bound, per cent of control (PIK3CG (human)): 0.3% | kinase still bound, per cent of control (CDK7 (human)): 5.6% | kinase still bound, per cent of control (RPS6KA1 KD2 (human)): 34% | kinase still bound, per cent of control [4]: 76% | kinase still bound, per cent of control (CSNK1E (human)): 11% | kinase still bound, per cent of control (FLT3 (human)): 91% | kinase still bound, per cent of control (MINK1 (human)): 42% | kinase still bound, per cent of control (MKNK1 (human)): 80% | kinase still bound, per cent of control (CLK3 (human)): 2.8% | kinase still bound, per cent of control (DCLK3 (human)): 2% | kinase still bound, per cent of control (HIPK1 (human)): 3.5% | kinase still bound, per cent of control (RPS6KA4 KD2 (human)): 3.2% | Kd (ULK2 (human)): 0.22 µM | kinase still bound, per cent of control (ULK2 (human)): 0.85% | kinase still bound, per cent of control [5]: 64% | Kd (CSNK2A1 (human)): 0.031 µM | kinase still bound, per cent of control (CSNK2A1 (human)): 0.65% | kinase still bound, per cent of control (CAMKK1 (human)): 14% | kinase still bound, per cent of control (GAK (human)): 3.2% | kinase still bound, per cent of control [6]: 4% | kinase still bound, per cent of control (MAP2K3 (human)): 65% | kinase still bound, per cent of control [7]: 92%

CN1C(=O)c2ccccc2N(C)c2nc(NS(=O)(=O)c3ccc(N)cc3)ncc21
kinase still bound, per cent of control (RPS6KA5 KD2 (human)): 100% | kinase still bound, per cent of control (DAPK1 (human)): 100% | kinase still bound, per cent of control (MYLK (human)): 82% | kinase still bound, per cent of control (STK17B (human)): 100% | kinase still bound, per cent of control [1]: 100% | kinase still bound, per cent of control (MKNK2 (human)): 72% | kinase still bound, per cent of control (PIM1 (human)): 100% | kinase still bound, per cent of control (PRKD1 (human)): 100% | kinase still bound, per cent of control (MAPK15 (human)): 99% | kinase still bound, per cent of control (RIOK2 (human)): 71% | kinase still bound, per cent of control (RIOK1 (human)): 66% | kinase still bound, per cent of control (NEK2 (human)): 100% | kinase still bound, per cent of control (CIT (human)): 100% | kinase still bound, per cent of control (CAMKK2 (human)): 100% | kinase still bound, per cent of control (CLK2 (human)): 100% | kinase still bound, per cent of control (KIT (human)): 76% | kinase still bound, per cent of control (RIPK4 (human)): 89% | kinase still bound, per cent of control (ACVR2A (human)): 100% | kinase still bound, per cent of control [2]: 63% | kinase still bound, per cent of control [3]: 100% | kinase still bound, per cent of control (MAP3K7 (human)): 87% | kinase still bound, per cent of control (AURKC (human)): 74% | kinase still bound, per cent of control (PIK3CG (human)): 96% | kinase still bound, per cent of control (CDK7 (human)): 91% | kinase still bound, per cent of control (RPS6KA1 KD2 (human)): 100% | kinase still bound, per cent of control [4]: 100% | kinase still bound, per cent of control (CSNK1E (human)): 100% | kinase still bound, per cent of control (FLT3 (human)): 100% | kinase still bound, per cent of control (MINK1 (human)): 100% | kinase still bound, per cent of control (MKNK1 (human)): 100% | kinase still bound, per cent of control (CLK3 (human)): 95% | kinase still bound, per cent of control (DCLK3 (human)): 100% | kinase still bound, per cent of control (HIPK1 (human)): 100% | kinase still bound, per cent of control (RPS6KA4 KD2 (human)): 100% | kinase still bound, per cent of control (ULK2 (human)): 89% | kinase still bound, per cent of control [5]: 100% | kinase still bound, per cent of control (CSNK2A1 (human)): 100% | kinase still bound, per cent of control (CAMKK1 (human)): 100% | kinase still bound, per cent of control (GAK (human)): 100% | kinase still bound, per cent of control [6]: 100% | kinase still bound, per cent of control (MAP2K3 (human)): 74% | kinase still bound, per cent of control [7]: 100%
